From PubChem BioAssay AID2060488 (Molecular Pharmacology Branch, DTP, NCI, 2025)

Tested on: 966289-007-R4-J1-PDC complex spheroid viability
Experiment: Anticancer human tumor 966289-007-R4-J1-PDC patient-derived pancreatic adenocarcinoma cell line growth inhibition [GQUAD]
Settings: for IC50: curve of first compound; for viability, T/C: stronger effect = lower value
Outline: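 Viability of tumor cells grown as complex spheroids with endothelial and stromal cells, exposed to drug combinations. Top concentration at or near clinical Cmax (else 10 microM), diluted in half-log increments.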

[1] = second compound 0.0316 µM, first compound 0.0316 µM
[2] = second compound 0.0316 µM, first compound 0.1 µM
[3] = second compound 0.0316 µM, first compound 0.316 µM
[4] = second compound 0.0316 µM, first compound 1 µM
[5] = second compound 0.0316 µM, first compound 3.16 µM
[6] = second compound 0.0316 µM, first compound 10 µM
[7] = second compound 0.1 µM, first compound 0.0316 µM
[8] = second compound 0.1 µM, first compound 0.1 µM
[9] = second compound 0.1 µM, first compound 0.316 µM
[10] = second compound 0.1 µM, first compound 1 µM
[11] = second compound 0.1 µM, first compound 3.16 µM
[12] = second compound 0.1 µM, first compound 10 µM
[13] = second compound 0.316 µM, first compound 0.0316 µM
[14] = second compound 0.316 µM, first compound 0.1 µM
[15] = second compound 0.316 µM, first compound 0.316 µM
[16] = second compound 0.316 µM, first compound 1 µM
[17] = second compound 0.316 µM, first compound 3.16 µM
[18] = second compound 0.316 µM, first compound 10 µM
[19] = second compound 1 µM, first compound 0.0316 µM
[20] = second compound 1 µM, first compound 0.1 µM
[21] = second compound 1 µM, first compound 0.316 µM
[22] = second compound 1 µM, first compound 1 µM
[23] = second compound 1 µM, first compound 3.16 µM
[24] = second compound 1 µM, first compound 10 µM
[25] = second compound 3.16 µM, first compound 0.0316 µM
[26] = second compound 3.16 µM, first compound 0.1 µM
[27] = second compound 3.16 µM, first compound 0.316 µM
[28] = second compound 3.16 µM, first compound 1 µM
[29] = second compound 3.16 µM, first compound 3.16 µM
[30] = second compound 3.16 µM, first compound 10 µM
[31] = second compound 10 µM, first compound 0.0316 µM
[32] = second compound 10 µM, first compound 0.1 µM
[33] = second compound 10 µM, first compound 0.316 µM
[34] = second compound 10 µM, first compound 1 µM
[35] = second compound 10 µM, first compound 3.16 µM
[36] = second compound 10 µM, first compound 10 µM
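Further: spheroids exposed to the agents for seven days before readout.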
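Wherever viability, T/C is given: percent viability relative to DMSO vehicle control wells taken as 100%.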

O=C(c1cc(Cc2n[nH]c(=O)c3ccccc23)ccc1F)N1CCN(C(=O)C2CC2)CC1 + CN(C)c1ccc(Nc2c3ccc(NC(=O)CCN4CCCC4)cc3nc3cc(NC(=O)CCN4CCCC4)ccc23)cc1
IC50 (second compound 0.0316 µM): 4.87 µM
IC50 (second compound 0.1 µM): 5.02 µM
IC50 (second compound 0.316 µM): 4.91 µM
IC50 (second compound 1 µM): 5.07 µM
IC50 (second compound 3.16 µM): 3.74 µM
IC50 (second compound 10 µM): 1.93 µM
viability, T/C [1]: 106%
viability, T/C [2]: 104%
viability, T/C [3]: 110%
viability, T/C [4]: 105%
viability, T/C [5]: 74.2%
viability, T/C [6]: 9.57%
viability, T/C [7]: 104%
viability, T/C [8]: 97.9%
viability, T/C [9]: 107%
viability, T/C [10]: 109%
viability, T/C [11]: 76.7%
viability, T/C [12]: 10.2%
viability, T/C [13]: 100%
viability, T/C [14]: 103%
viability, T/C [15]: 101%
viability, T/C [16]: 108%
viability, T/C [17]: 75.1%
viability, T/C [18]: 9.35%
viability, T/C [19]: 99.7%
viability, T/C [20]: 99.3%
viability, T/C [21]: 104%
viability, T/C [22]: 109%
viability, T/C [23]: 79%
viability, T/C [24]: 8.19%
viability, T/C [25]: 105%
viability, T/C [26]: 104%
viability, T/C [27]: 101%
viability, T/C [28]: 107%
viability, T/C [29]: 57.4%
viability, T/C [30]: 6.49%
viability, T/C [31]: 102%
viability, T/C [32]: 103%
viability, T/C [33]: 104%
viability, T/C [34]: 95.7%
viability, T/C [35]: 15.6%
viability, T/C [36]: 3.36%

CCCS(=O)(=O)Nc1ccc(F)c(C(=O)c2c[nH]c3ncc(-c4ccc(Cl)cc4)cc23)c1F + CN(C)c1ccc(Nc2c3ccc(NC(=O)CCN4CCCC4)cc3nc3cc(NC(=O)CCN4CCCC4)ccc23)cc1
IC50 (second compound 0.0316 µM): 7.34 µM
IC50 (second compound 0.1 µM): 7.34 µM
IC50 (second compound 0.316 µM): 7.41 µM
IC50 (second compound 1 µM): 6.87 µM
IC50 (second compound 3.16 µM): 5.67 µM
IC50 (second compound 10 µM): 2.03 µM
viability, T/C [1]: 99.4%
viability, T/C [2]: 97.3%
viability, T/C [3]: 109%
viability, T/C [4]: 103%
viability, T/C [5]: 104%
viability, T/C [6]: 30.5%
viability, T/C [7]: 100%
viability, T/C [8]: 101%
viability, T/C [9]: 99.3%
viability, T/C [10]: 102%
viability, T/C [11]: 107%
viability, T/C [12]: 30.8%
viability, T/C [13]: 100%
viability, T/C [14]: 105%
viability, T/C [15]: 103%
viability, T/C [16]: 106%
viability, T/C [17]: 102%
viability, T/C [18]: 31.8%
viability, T/C [19]: 92.2%
viability, T/C [20]: 104%
viability, T/C [21]: 109%
viability, T/C [22]: 108%
viability, T/C [23]: 103%
viability, T/C [24]: 24.4%
viability, T/C [25]: 99.8%
viability, T/C [26]: 99.9%
viability, T/C [27]: 110%
viability, T/C [28]: 104%
viability, T/C [29]: 93.4%
viability, T/C [30]: 7.98%
viability, T/C [31]: 103%
viability, T/C [32]: 102%
viability, T/C [33]: 106%
viability, T/C [34]: 103%
viability, T/C [35]: 17.2%
viability, T/C [36]: 0.53%

Cc1cccc(N(C)C(=O)C2C(O)CCN2c2nc(C)cc(C(F)(F)F)c2C#N)c1 (stereo not drawn) + Cc1cnc(CNC(=O)c2c(=O)c3ccc(N4CCCN(C)CC4)nc3n3c2sc2ccccc23)cn1
IC50 (second compound 0.0316 µM): > 10 µM
IC50 (second compound 0.1 µM): < 0.0316 µM
IC50 (second compound 0.316 µM): < 0.0316 µM
IC50 (second compound 1 µM): < 0.0316 µM
IC50 (second compound 3.16 µM): < 0.0316 µM
IC50 (second compound 10 µM): < 0.0316 µM
viability, T/C [1]: 111%
viability, T/C [2]: 102%
viability, T/C [3]: 103%
viability, T/C [4]: 102%
viability, T/C [5]: 110%
viability, T/C [6]: 106%
viability, T/C [7]: 40.1%
viability, T/C [8]: 30.9%
viability, T/C [9]: 36.3%
viability, T/C [10]: 34.9%
viability, T/C [11]: 36.2%
viability, T/C [12]: 40.1%
viability, T/C [13]: 12.1%
viability, T/C [14]: 11.4%
viability, T/C [15]: 10.2%
viability, T/C [16]: 13.8%
viability, T/C [17]: 12.7%
viability, T/C [18]: 13.3%
viability, T/C [19]: 6.47%
viability, T/C [20]: 6.97%
viability, T/C [21]: 7.01%
viability, T/C [22]: 6.54%
viability, T/C [23]: 6.3%
viability, T/C [24]: 7.05%
viability, T/C [25]: 5.3%
viability, T/C [26]: 4.93%
viability, T/C [27]: 4.77%
viability, T/C [28]: 5.55%
viability, T/C [29]: 5.79%
viability, T/C [30]: 5.35%
viability, T/C [31]: 0.13%
viability, T/C [32]: 0.18%
viability, T/C [33]: 0.17%
viability, T/C [34]: 0.17%
viability, T/C [35]: 0.51%
viability, T/C [36]: 0.38%

C=CC(=O)N1CCN(c2nc(=O)n(-c3c(C)ccnc3C(C)C)c3nc(-c4c(O)cccc4F)c(F)cc23)C(C)C1 (stereo not drawn) + CN(C)c1ccc(Nc2c3ccc(NC(=O)CCN4CCCC4)cc3nc3cc(NC(=O)CCN4CCCC4)ccc23)cc1
IC50 (second compound 0.0316 µM): > 10 µM
IC50 (second compound 0.1 µM): > 10 µM
IC50 (second compound 0.316 µM): > 10 µM
IC50 (second compound 1 µM): > 10 µM
IC50 (second compound 3.16 µM): > 10 µM
IC50 (second compound 10 µM): 6.78 µM
viability, T/C [1]: 107%
viability, T/C [2]: 99.6%
viability, T/C [3]: 106%
viability, T/C [4]: 100%
viability, T/C [5]: 106%
viability, T/C [6]: 110%
viability, T/C [7]: 101%
viability, T/C [8]: 105%
viability, T/C [9]: 105%
viability, T/C [10]: 104%
viability, T/C [11]: 102%
viability, T/C [12]: 113%
viability, T/C [13]: 96%
viability, T/C [14]: 104%
viability, T/C [15]: 106%
viability, T/C [16]: 102%
viability, T/C [17]: 97.1%
viability, T/C [18]: 111%
viability, T/C [19]: 94.3%
viability, T/C [20]: 99.8%
viability, T/C [21]: 102%
viability, T/C [22]: 94.8%
viability, T/C [23]: 108%
viability, T/C [24]: 108%
viability, T/C [25]: 99.6%
viability, T/C [26]: 101%
viability, T/C [27]: 107%
viability, T/C [28]: 105%
viability, T/C [29]: 106%
viability, T/C [30]: 111%
viability, T/C [31]: 105%
viability, T/C [32]: 101%
viability, T/C [33]: 108%
viability, T/C [34]: 105%
viability, T/C [35]: 106%
viability, T/C [36]: 21.7%
